The nature of experiment [1]: Antiproliferative activity against human MCF10A cells. The settings on record: MCF-10A. Type of experiment: cell-based.
Experiment [2] can be described thus: Antiproliferative activity against human MCF7/ADR cells. Type of experiment: functional, cell-based. The settings on record: NCI/ADR-RES.
A short description of experiment [3]: Antiproliferative activity against human MDA231 cells. Format: functional, cell-based. The settings on record: MDA-MB-231.
Experiment [4] in a line: Antiproliferative activity against human DU145 cells. Format: functional, cell-based. The settings on record: DU-145.
Experiment [5] relates to Plasmodium falciparum. As to the kind of experiment: Antiparasitic activity against Plasmodium falciparum 7G8 assessed as growth inhibition after 56 hrs. Type of experiment: functional.
For experiment [6], the system named is Plasmodium falciparum. Kind of experiment: Antiparasitic activity against Plasmodium falciparum FCR-3/Gambia assessed as growth inhibition after 56 hrs. Type of experiment: functional.
For experiment [7], the system named is Plasmodium falciparum. Kind of experiment: Antiparasitic activity against Plasmodium falciparum 3D7 assessed as growth inhibition after 56 hrs. Type of experiment: functional.
For experiment [8], the system named is Plasmodium falciparum. Kind of experiment: Antiparasitic activity against Plasmodium falciparum Dd2 assessed as growth inhibition after 56 hrs. Format: functional.
Experiment [9] in a line: Antiproliferative activity against human SCC35 cells. Type of experiment: functional, cell-based.
In experiment [10] the test system is Plasmodium falciparum. As to the kind of experiment: Antiparasitic activity against Plasmodium falciparum 3D7 assessed as growth inhibition. Format: functional.
The subject of experiment [11] is Plasmodium falciparum. Kind of experiment: Antiparasitic activity against Plasmodium falciparum Dd2 assessed as growth inhibition. Format: functional.
Experiment [12] can be described thus: Antiproliferative activity against human HS68 cells. Format: cell-based.
Experiment [13] is described as follows: Antiproliferative activity against human NHP5 cells. Type of experiment: cell-based.
Experiment [14] deals with Plasmodium falciparum. Kind of experiment: Antiparasitic activity against chloroquine-sensitive Plasmodium falciparum 3D7. Type of experiment: functional.
For experiment [15], the system named is Plasmodium falciparum. Kind of experiment: Antiparasitic activity against chloroquine-resistant/verapamil-sensitive Plasmodium falciparum Dd2 assessed as growth inhibition in presence of chloroquine. Type of experiment: functional.
Experiment [16] deals with Plasmodium falciparum. As to the kind of experiment: Antiparasitic activity against chloroquine-sensitive Plasmodium falciparum HB3. Type of experiment: functional.
Experiment [17] relates to Plasmodium falciparum. Kind of experiment: Antiparasitic activity against chloroquine-resistant/verapamil-insensitive Plasmodium falciparum 7G8. Format: functional.
For experiment [18], the target named is T1, Histone deacetylase (Homo sapiens) (UniProt Q13547+O15379+Q9UBN7+Q92769+Q9UQL6+Q8WUI4+Q9BY41+Q96DB2+P56524+Q9UKV0+Q969S8). As to the kind of experiment: Inhibition of HDAC (unknown origin) at 100 nM using Fluor-Lys as substrate relative to control. Type of experiment: protein assay.
Experiment [19] relates to Plasmodium falciparum. Kind of experiment: Antiparasitic activity against chloroquine-resistant/verapamil-sensitive Plasmodium falciparum FCR-3/Gambia. Format: functional.
For experiment [20], the system named is Plasmodium falciparum. As to the kind of experiment: Antiparasitic activity against chloroquine-resistant/verapamil-sensitive Plasmodium falciparum VS/1. Format: functional.
Experiment [21] deals with Plasmodium falciparum. As to the kind of experiment: Antiparasitic activity against chloroquine-resistant/verapamil-sensitive Plasmodium falciparum FCB. Type of experiment: functional.
For experiment [22], the system named is Plasmodium falciparum. As to the kind of experiment: Potentiation of chloroquine-induced anitiparasitic activity in chloroquine-resistant/verapamil-sensitive Plasmodium falciparum FCB assessed as decrease in chloroquine IC50 relative to control. Type of experiment: functional.
Experiment [23] has as its system Plasmodium falciparum. As to the kind of experiment: Potentiation of chloroquine-induced anitiparasitic activity in chloroquine-resistant/verapamil-sensitive Plasmodium falciparum Dd2 assessed as decrease in chloroquine IC50 relative to control. Type of experiment: functional.
Experiment [24] has as its system Plasmodium falciparum. Kind of experiment: Antiparasitic activity against chloroquine-resistant/verapamil-sensitive Plasmodium falciparum Dd2. Type of experiment: functional.
The target in experiment [25] is T1, Histone deacetylase (Homo sapiens). Kind of experiment: Potency index, ratio of trichostatin A IC50 to compound IC50 for HDAC (unknown origin). Format: protein assay.

Activity calls are given as the source filed them. The calls are words filed in the database; no cut-off is given here.

The compound `N[C@@H](Cc1ccccc1)C(=O)Nc1ccccc1-c1ccc(NC(=O)CCCCCCC(=O)NO)cc1` gave an IC50 in experiment [1] of 100000 nM.

Consider `O=C(CCCCCCC(=O)Nc1nc(-c2ccccc2)cs1)NO`, for which the IC50 was 400 nM in experiment [2], < 400 nM in [3], 190 nM in experiment [4] and 280 nM in experiment [9]. The “growth inhibition (GI)” value in the experiment with Plasmodium falciparum [5], in the experiment on Plasmodium falciparum [6], in the experiment with Plasmodium falciparum [7] and with Plasmodium falciparum [8] was “Active” throughout.

As to `O=C(CCCCCCC(=O)Nc1ccc(-c2ccccc2)cc1)NO`, the IC50 is 350 nM in experiment [2], < 400 nM in experiment [3], 580 nM in experiment [4] and 100 nM in experiment [9]. Moreover, the “growth inhibition (GI)” value with Plasmodium falciparum [10], in the experiment on Plasmodium falciparum [5] and with Plasmodium falciparum [11] was “Active” in each case.

As for `N[C@@H](Cc1ccc(O)cc1)C(=O)Nc1ccccc1-c1ccc(NC(=O)CCCCCCC(=O)NO)cc1`, the IC50 is > 300000 nM in experiment [12], > 100000 nM in experiment [1] and 100000 nM in experiment [13].

Turning to `Nc1cccc(-c2csc(NC(=O)CCCCCCC(=O)NO)n2)c1`, the IC50 is 3000 nM in [2]; < 400 nM in experiment [3]; 1.25 nM in the experiment on Plasmodium falciparum [14]; 320 nM in experiment [4]; 0.9 nM with Plasmodium falciparum [16]; 100 nM in experiment [9]. Further, 0.175 nM corresponded to half-maximal inhibition in the experiment with Plasmodium falciparum [17] (IC50). The “growth inhibition (GI)” value with Plasmodium falciparum [5], in the experiment with Plasmodium falciparum [15], in the experiment with Plasmodium falciparum [6], with Plasmodium falciparum [7] and in the experiment on Plasmodium falciparum [8] was “Active” in each case.

With `Nc1ccccc1-c1ccc(NC(=O)CCCCCCC(=O)NO)cc1`, the IC50 in experiment [2] turned out to be 10000 nM; in [3], 1000 nM; in [4], 180 nM; in experiment [9] it was 2580 nM. The “growth inhibition (GI)” value in the experiment on Plasmodium falciparum [10], in the experiment on Plasmodium falciparum [5] and with Plasmodium falciparum [11] was “Active” in each case.

The compound `Nc1ccccc1-c1csc(NC(=O)CCCCCCC(=O)NO)n1` showed an inhibition in [18] of 2%.

Consider `CN(C)c1ccc(NC(=O)NCCCCCCC(=O)NO)cc1`, for which the IC50 was found to be 175 nM with Plasmodium falciparum [19]; 450 nM with Plasmodium falciparum [14]; 250 nM with Plasmodium falciparum [20]; 125 nM with Plasmodium falciparum [21]; 185 nM in the experiment on Plasmodium falciparum [24]; 250 nM with Plasmodium falciparum [16]. Further, the IC50 in the experiment on Plasmodium falciparum [17] came to 300 nM. The “fold change (FC)” value with Plasmodium falciparum [22] is listed as 5.5; with Plasmodium falciparum [23], 3.5.

For `N[C@@H](Cc1c[nH]c2ccccc12)C(=O)Nc1ccccc1-c1ccc(NC(=O)CCCCCCC(=O)NO)cc1`, the values for the IC50 in experiment [12] and in experiment [1] were > 300000 nM and > 100000 nM, respectively.

For the compound `O=C(CCCCCCC(=O)Nc1nc(-c2cccc([N+](=O)[O-])c2)cs1)NO`, the IC50 with Plasmodium falciparum [19] was 22 nM; in experiment [2] it was 3000 nM; in [3] it was < 400 nM; with Plasmodium falciparum [14] it was 30 nM; in [4] it was 320 nM; in the experiment with Plasmodium falciparum [24], 12 nM. For the same compound, the IC50 in experiment [9] came out at 380 nM; in the experiment with Plasmodium falciparum [17] it was 10 nM. For the same compound, the “growth inhibition (GI)” value in the experiment with Plasmodium falciparum [5], with Plasmodium falciparum [6], in the experiment with Plasmodium falciparum [7] and in the experiment on Plasmodium falciparum [8] was “Active” in each case.

With `CCOC(=O)Nc1cccc(-c2csc(NC(=O)CCCCCCC(=O)NO)n2)c1`, the Ratio IC50 in experiment [25] is 2. For the same compound, the half-maximal inhibitory concentration (IC50) in experiment [4] turned out to be 520 nM; in [9], 190 nM.

The record behind these values is ChEMBL document CHEMBL3880414, “Isoform Selective HDAC Inhibitors” (2010).
